In ChEMBL document CHEMBL1201862, “PubChem BioAssay data set” (2004):
Values belong to the compound of their own block, whether it stands above or below them. Activity calls are given as the source filed them.

Experiments:
[1] = molecular target: T1, Short transient receptor potential channel 4 (Mus musculus, UniProt Q9QUQ5); assay: block of DAMGO-driven TRPC4 calcium entry – cell-based, HEK293 TRPC4/mu-opioid, Fluo-4 calcium, dose response (AID 434942); assay type: functional;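 further: potency of inhibitors blocking the TRPC4 calcium response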
T1 sequence (Q9QUQ5 whole entry): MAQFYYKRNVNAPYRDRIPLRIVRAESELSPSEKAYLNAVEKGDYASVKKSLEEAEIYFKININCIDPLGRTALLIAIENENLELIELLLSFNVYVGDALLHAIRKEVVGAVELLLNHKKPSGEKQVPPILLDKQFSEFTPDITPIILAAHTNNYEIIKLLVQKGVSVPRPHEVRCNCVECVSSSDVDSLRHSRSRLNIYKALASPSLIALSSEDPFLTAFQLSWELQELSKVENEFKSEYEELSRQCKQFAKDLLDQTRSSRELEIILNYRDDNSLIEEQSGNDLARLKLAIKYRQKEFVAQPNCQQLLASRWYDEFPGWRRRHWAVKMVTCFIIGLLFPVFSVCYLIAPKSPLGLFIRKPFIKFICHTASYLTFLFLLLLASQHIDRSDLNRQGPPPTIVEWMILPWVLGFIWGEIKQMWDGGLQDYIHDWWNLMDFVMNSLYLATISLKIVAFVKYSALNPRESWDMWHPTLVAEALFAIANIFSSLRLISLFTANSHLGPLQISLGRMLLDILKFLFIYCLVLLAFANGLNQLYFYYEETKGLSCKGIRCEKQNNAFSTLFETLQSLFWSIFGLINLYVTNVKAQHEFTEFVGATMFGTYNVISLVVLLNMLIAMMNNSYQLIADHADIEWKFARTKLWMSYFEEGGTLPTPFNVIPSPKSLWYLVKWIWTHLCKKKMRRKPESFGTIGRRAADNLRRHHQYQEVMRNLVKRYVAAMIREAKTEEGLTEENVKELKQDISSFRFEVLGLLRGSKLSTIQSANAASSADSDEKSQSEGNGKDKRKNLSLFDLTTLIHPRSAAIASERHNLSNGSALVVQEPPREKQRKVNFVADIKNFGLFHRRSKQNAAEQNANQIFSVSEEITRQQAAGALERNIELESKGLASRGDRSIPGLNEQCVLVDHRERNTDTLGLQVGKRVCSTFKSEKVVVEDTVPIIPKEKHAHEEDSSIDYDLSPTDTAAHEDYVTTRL

[2] = molecular target: T2, DNA repair and recombination protein RAD54-like (Homo sapiens, UniProt Q92698); assay: RAD54 Holliday junction migration blockers – biochemical, fluorescence, cherry-picked samples, dose series, confirmation (AID 651657); assay type: functional
T2 sequence (Q92698 whole entry): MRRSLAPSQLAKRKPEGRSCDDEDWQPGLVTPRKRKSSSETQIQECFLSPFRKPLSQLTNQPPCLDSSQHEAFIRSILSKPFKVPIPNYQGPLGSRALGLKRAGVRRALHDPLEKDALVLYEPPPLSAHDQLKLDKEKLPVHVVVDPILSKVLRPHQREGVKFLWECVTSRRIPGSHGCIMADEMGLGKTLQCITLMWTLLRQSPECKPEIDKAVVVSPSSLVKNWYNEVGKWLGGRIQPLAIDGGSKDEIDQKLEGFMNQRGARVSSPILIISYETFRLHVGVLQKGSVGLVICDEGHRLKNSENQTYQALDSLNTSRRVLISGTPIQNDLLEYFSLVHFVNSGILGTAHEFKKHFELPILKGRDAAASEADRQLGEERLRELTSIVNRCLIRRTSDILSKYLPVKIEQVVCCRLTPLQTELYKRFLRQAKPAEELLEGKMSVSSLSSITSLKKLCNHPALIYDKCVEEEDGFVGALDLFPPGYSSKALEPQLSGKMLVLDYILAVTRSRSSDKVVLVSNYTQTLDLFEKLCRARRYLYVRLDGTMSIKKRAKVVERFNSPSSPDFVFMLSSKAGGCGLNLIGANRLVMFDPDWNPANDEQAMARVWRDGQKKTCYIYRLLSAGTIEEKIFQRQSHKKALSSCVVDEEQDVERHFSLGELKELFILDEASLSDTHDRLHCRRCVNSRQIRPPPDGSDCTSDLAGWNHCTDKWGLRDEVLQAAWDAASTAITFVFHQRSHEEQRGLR

Leucine aminopeptidase = molecular target: T3, Leucine aminopeptidase (Plasmodium falciparum 3D7, UniProt Q8IL11); assay: P. falciparum M17LAP inhibitors, primary screen, biochemical, fluorogenic H-Leu-NHMec substrate, 1536-well (AID 1619); assay type: functional
T3 sequence (Q8IL11 whole entry): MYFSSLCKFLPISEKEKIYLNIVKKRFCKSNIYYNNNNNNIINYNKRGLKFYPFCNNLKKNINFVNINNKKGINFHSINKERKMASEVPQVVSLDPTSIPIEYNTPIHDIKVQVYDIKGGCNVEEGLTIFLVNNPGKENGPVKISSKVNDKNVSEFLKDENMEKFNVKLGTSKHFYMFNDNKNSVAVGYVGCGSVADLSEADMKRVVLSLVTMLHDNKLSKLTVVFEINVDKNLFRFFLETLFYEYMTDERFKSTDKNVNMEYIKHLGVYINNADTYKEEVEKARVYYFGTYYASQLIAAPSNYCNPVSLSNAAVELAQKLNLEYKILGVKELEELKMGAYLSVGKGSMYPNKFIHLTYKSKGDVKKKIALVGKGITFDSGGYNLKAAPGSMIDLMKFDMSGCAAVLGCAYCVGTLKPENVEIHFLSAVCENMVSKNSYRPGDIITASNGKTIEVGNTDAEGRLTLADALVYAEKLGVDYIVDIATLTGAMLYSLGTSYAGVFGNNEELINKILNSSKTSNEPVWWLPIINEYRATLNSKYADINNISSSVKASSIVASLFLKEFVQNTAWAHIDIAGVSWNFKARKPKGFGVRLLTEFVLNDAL

Genome polyprotein = Genome polyprotein (dengue virus type 2, UniProt P29990); assay: flavivirus cap methylation enzyme inhibition – biochemical, confirmation dose response, primary screen (AID 588689); assay type: functional
[3] = molecular target: T4, Histone-lysine N-methyltransferase NSD2 (Homo sapiens, UniProt O96028); assay type: biochemical
T4 sequence (O96028 whole entry): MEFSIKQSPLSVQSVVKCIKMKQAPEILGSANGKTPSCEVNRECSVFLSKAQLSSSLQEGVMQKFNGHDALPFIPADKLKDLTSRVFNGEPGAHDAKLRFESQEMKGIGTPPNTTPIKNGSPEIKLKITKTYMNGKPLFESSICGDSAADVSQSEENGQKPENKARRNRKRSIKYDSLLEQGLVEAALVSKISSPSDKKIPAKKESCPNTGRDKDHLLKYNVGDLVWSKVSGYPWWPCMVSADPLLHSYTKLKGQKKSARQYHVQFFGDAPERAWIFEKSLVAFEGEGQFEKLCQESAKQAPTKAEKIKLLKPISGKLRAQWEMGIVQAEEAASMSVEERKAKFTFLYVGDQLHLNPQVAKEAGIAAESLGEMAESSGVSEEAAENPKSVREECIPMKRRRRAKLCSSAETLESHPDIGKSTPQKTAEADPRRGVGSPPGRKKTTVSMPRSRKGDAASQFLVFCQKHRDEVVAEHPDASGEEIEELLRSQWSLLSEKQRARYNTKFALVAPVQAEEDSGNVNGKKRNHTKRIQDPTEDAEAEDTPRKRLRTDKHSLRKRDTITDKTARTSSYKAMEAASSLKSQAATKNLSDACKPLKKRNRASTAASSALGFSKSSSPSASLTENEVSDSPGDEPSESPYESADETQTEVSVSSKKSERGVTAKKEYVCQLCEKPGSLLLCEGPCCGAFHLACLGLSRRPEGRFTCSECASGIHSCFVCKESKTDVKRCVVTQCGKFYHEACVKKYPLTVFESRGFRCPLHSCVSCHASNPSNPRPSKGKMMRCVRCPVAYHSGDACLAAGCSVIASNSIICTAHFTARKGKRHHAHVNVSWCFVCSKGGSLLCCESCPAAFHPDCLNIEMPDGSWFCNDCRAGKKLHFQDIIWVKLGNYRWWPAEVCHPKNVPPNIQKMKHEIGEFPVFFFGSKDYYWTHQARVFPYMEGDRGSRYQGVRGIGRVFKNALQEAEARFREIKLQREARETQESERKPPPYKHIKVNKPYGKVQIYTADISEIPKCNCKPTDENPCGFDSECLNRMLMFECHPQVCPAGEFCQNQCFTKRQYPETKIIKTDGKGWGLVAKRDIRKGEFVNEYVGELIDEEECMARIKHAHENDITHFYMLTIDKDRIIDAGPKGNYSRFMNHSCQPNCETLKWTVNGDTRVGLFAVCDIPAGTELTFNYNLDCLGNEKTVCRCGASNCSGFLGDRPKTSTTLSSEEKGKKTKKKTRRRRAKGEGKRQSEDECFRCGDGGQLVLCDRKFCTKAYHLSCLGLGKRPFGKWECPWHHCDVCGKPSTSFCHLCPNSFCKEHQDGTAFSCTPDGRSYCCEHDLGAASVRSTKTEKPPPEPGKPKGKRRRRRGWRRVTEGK

[4] = HEK-293T cell viability reduction – luminescence, B-cell screen hits, cytotoxicity control for BCR NF-kB inhibitor project, dose response (AID 489021); assay type: functional, cell-based;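 further: HEK-293T cells carrying an NF-kB luciferase reporter; cells exposed to compound for about 14 hours before viability readout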
[5] = viability loss in THP-1 monocytes – THP-1 cells, cytotoxicity control for Vif-APOBEC3G degradation inhibitor project, dose response (AID 1117359); assay type: functional; conditions: THP-1

Genome polyprotein, sequence (P29990 2492-3391 limits assumed): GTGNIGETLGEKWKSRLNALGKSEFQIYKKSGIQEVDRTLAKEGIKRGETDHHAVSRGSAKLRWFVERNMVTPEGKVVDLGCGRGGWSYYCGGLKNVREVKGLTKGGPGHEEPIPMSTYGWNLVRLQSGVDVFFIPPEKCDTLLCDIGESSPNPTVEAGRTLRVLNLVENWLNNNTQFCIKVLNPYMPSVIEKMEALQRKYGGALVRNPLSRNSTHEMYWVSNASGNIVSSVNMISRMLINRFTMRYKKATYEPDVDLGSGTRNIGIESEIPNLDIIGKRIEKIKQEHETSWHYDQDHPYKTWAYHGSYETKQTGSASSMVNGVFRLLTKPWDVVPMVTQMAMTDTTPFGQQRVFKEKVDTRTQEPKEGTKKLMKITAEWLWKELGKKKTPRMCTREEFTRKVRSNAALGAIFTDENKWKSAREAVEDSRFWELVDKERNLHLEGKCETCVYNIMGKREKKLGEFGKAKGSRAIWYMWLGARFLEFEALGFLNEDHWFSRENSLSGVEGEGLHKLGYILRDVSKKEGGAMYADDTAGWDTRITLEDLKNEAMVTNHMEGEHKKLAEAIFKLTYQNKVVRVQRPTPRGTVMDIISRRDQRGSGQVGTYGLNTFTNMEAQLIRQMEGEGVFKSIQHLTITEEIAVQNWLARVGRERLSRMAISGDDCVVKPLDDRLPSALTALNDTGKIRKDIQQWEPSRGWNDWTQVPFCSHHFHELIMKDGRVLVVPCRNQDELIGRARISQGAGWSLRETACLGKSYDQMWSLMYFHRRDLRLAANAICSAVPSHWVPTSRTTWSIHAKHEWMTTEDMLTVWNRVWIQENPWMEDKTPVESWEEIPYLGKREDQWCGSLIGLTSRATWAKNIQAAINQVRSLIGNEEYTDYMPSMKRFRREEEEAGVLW

Compound: Cc1cc(C)n(-c2nc(NCCN(C)C)c3c4c(sc3n2)COC(C)(C)C4)n1
AC50 [2]: 100 µM (inactive)

Compound: COc1ccc(CC(=O)Nc2cccc(-c3ccc4nnc(C)n4n3)c2)cc1
IC50 [4]: > 80 µM (inactive)

Compound: Cc1ccc2nc(O)c(CN(Cc3ccco3)C(=O)c3ccncc3)cc2c1
CC50 [5]: 13.5 µM (active)

Further lines, results first:

EC50 [1]: 3.76 µM (active) | AC50 [2]: 97.9 µM (active)
Compound: Cc1ccc2nc(C)c3c(c2c1)N(c1ccc(F)cc1)CC3

IC50 (Leucine aminopeptidase): 16 µM (active)
Compound: O=C(Nc1nncs1)c1ccccc1Br

IC50 (Leucine aminopeptidase): 7.2 µM (active) | IC50 (Genome polyprotein): 62.7 µM (active)
Compound: Cc1sc(NC(=O)C2CCCCC2C(=O)O)c(C(N)=O)c1-c1ccc(C(C)C)cc1 (stereo not given)

AC50 [3]: > 20 µM (inactive)
Compound: CNCCOc1ccccc1-c1ccccc1

IC50 (Leucine aminopeptidase): 1.21 µM (active)
Compound: CCOc1ccc(NC(=O)CN2C(=O)CSC(C)C2=O)cc1 (stereo not given)
